# Reference: ChEMBL document CHEMBL5385976, “Recognition of arylmethylidene derivatives of imidazothiazolotriazinones as novel tubulin polymerization inhibitors” (RSC Med Chem, 2024)
# How the values were obtained:
# NCI-H226 = test: Antiproliferative activity against human NCI-H226 cells assessed as mean cell growth at 10 uM incubated for 48 hrs by SRB assay relative to control; format: functional
# Panc02 = test: Inhibition of cell growth in mouse Panc02 cells incubated for 72 hrs by MTT assay; format: functional
# HL-60(TB) = test: Antiproliferative activity against human HL-60(TB) cells assessed as mean cell growth at 10 uM incubated for 48 hrs by SRB assay relative to control; format: functional
# [1] = system: Panel NCI-60 (60 carcinoma cell lines); test: Antiproliferative activity against human panel NCI-60 (60 carcinoma cell lines) assessed as total inhibition of cell growth incubated for 48 hrs by SRB assay; format: functional
# [2] = system: Panel NCI-60 (60 carcinoma cell lines); test: Antiproliferative activity against human panel NCI-60 (60 carcinoma cell lines) incubated for 48 hrs by SRB assay; format: functional
# COLO357 = test: Inhibition of cell growth in human COLO357 cells incubated for 72 hrs by MTT assay; format: functional, cell-based; conditions: COLO357, time 72 hrs
# K562 = test: Inhibition of cell growth in human K562 cells incubated for 72 hrs by MTT assay; format: functional, cell-based; conditions: K562, time 72 hrs
# MDA-MB-435 = test: Antiproliferative activity against human MDA-MB-435 cells assessed as mean cell growth at 10 uM incubated for 48 hrs by SRB assay relative to control; format: functional
# SK-MEL-5 = test: Antiproliferative activity against human SK-MEL-5 cells assessed as mean cell growth at 10 uM incubated for 48 hrs by SRB assay relative to control; format: functional
# A498 = test: Antiproliferative activity against human A498 cells assessed as mean cell growth at 10 uM incubated for 48 hrs by SRB assay relative to control; format: functional
# DU-145 = test: Antiproliferative activity against human DU-145 cells assessed as mean cell growth at 10 uM incubated for 48 hrs by SRB assay relative to control; format: functional
# NCI-H522 = test: Antiproliferative activity against human NCI-H522 cells assessed as mean cell growth at 10 uM incubated for 48 hrs by SRB assay relative to control; format: functional
# UO-31 = test: Antiproliferative activity against human UO-31 cells assessed as mean cell growth at 10 uM incubated for 48 hrs by SRB assay relative to control; format: functional
# SNB-75 = test: Antiproliferative activity against human SNB-75 cells assessed as mean cell growth at 10 uM incubated for 48 hrs by SRB assay relative to control; format: functional
# MDA-MB-468 = test: Antiproliferative activity against human MDA-MB-468 cells assessed as mean cell growth at 10 uM incubated for 48 hrs by SRB assay relative to control; format: functional
# SK-OV-3 = test: Antiproliferative activity against human SK-OV-3 cells assessed as mean cell growth at 10 uM incubated for 48 hrs by SRB assay relative to control; format: functional
Compound,GI [1],GI50 [2],LC50 [2],Activity (MDA-MB-435),other results
CN1C(=O)N(C)C2Nn3c(s/c(=C\c4cccc([N+](=O)[O-])c4)c3=O)=NC21 (configuration not stated),,,,,Activity (NCI-H226): 92%
CN1C(=O)N(C)C2C1NN=c1s/c(=C\c3ccc(Cl)cc3Cl)c(=O)n12 (configuration not stated),>78 µM,650 nM,> 100 µM,,GI50 (Panc02): 80 nM; Cell growth relative to control (HL-60(TB)): 27%; GI50 (COLO357): 80 nM; GI50 (K562): 80 nM
CCN1C(=O)N(CC)C2Nn3c(s/c(=C\c4ccccc4Br)c3=O)=NC21 (configuration not stated),>53.6 µM,2430 nM,> 95 µM,22%,
CCN1C(=O)N(CC)C2C1NN=c1s/c(=C\c3ccc(C(F)(F)F)cc3)c(=O)n12 (configuration not stated),>65.4 µM,610 nM,> 96.6 µM,,GI50 (Panc02): 2000 nM; Cell growth relative to control (HL-60(TB)): 19%; GI50 (COLO357): 2000 nM; GI50 (K562): 2000 nM
CN1C(=O)N(C)C2C1NN=c1s/c(=C\c3ccc(Br)cc3)c(=O)n12 (configuration not stated),,,,29%,
COc1ccc(/C=c2\sc3n(c2=O)C2C(NN=3)N(C)C(=O)N2C)cc1 (configuration not stated),>83.8 µM,7320 nM,> 100 µM,24%,GI50 (Panc02): 400 nM; GI50 (COLO357): 400 nM; GI50 (K562): 2000 nM
CCN1C(=O)N(CC)C2C1NN=c1s/c(=C\c3ccc(OC)cc3)c(=O)n12 (configuration not stated),>71.4 µM,2280 nM,> 95.5 µM,,GI50 (Panc02): 16 nM; Cell growth relative to control (HL-60(TB)): 19%; GI50 (COLO357): 400 nM; GI50 (K562): 400 nM
CCN1C(=O)N(CC)C2C1NN=c1s/c(=C\c3ccccc3)c(=O)n12 (configuration not stated),>84.6 µM,2290 nM,> 97.6 µM,,GI50 (Panc02): 80 nM; Cell growth relative to control (HL-60(TB)): 19%; GI50 (COLO357): 80 nM; GI50 (K562): 80 nM
CCN1C(=O)N(CC)C2C1NN=c1s/c(=C\c3cccc([N+](=O)[O-])c3)c(=O)n12 (configuration not stated),>83.1 µM,2020 nM,> 98.7 µM,,GI50 (Panc02): 80 nM; Cell growth relative to control (HL-60(TB)): 23%; GI50 (COLO357): 400 nM; GI50 (K562): 400 nM
CC[C@@]1(O)C(=O)OCc2c1cc1n(c2=O)Cc2cc3ccccc3nc2-1 [CAMPTOTHECIN],,,,,Activity (SK-MEL-5): -27%
CCN1C(=O)N(CC)C2C1NN=c1s/c(=C\c3ccc(F)cc3)c(=O)n12 (configuration not stated),>81.3 µM,1680 nM,> 97.8 µM,,GI50 (Panc02): 80 nM; Cell growth relative to control (HL-60(TB)): 21%; GI50 (COLO357): 80 nM; GI50 (K562): 400 nM
CN1C(=O)N(C)C2Nn3c(s/c(=C\c4ccccc4)c3=O)=NC21 (configuration not stated),,,,,Activity (A498): 97%
CCN1C(=O)N(CC)C2C1NN=c1s/c(=C\c3ccccc3F)c(=O)n12 (configuration not stated),>63.3 µM,240 nM,> 95.5 µM,,GI50 (Panc02): 3.2 nM; Cell growth relative to control (HL-60(TB)): 18%; GI50 (COLO357): 16 nM; GI50 (K562): 16 nM
CC(=O)O[C@H]1C(=O)[C@@]2(C)[C@H]([C@H](OC(=O)c3ccccc3)[C@]3(O)C[C@H](OC(=O)[C@H](O)[C@@H](NC(=O)c4ccccc4)c4ccccc4)C(C)=C1C3(C)C)[C@]1(OC(C)=O)CO[C@@H]1C[C@@H]2O [PACLITAXEL],,,,,Activity (DU-145): 15%
CCN1C(=O)N(CC)C2Nn3c(s/c(=C\c4ccc(F)cc4)c3=O)=NC21 (configuration not stated),,,,,Activity (NCI-H522): 101%
CN1C(=O)N(C)C2Nn3c(s/c(=C\c4ccc([N+](=O)[O-])cc4)c3=O)=NC21 (configuration not stated),,,,,Activity (A498): 99%
CN1C(=O)N(C)C2C1NN=c1s/c(=C\c3cccc([N+](=O)[O-])c3)c(=O)n12 (configuration not stated),,,,88%,
CN1C(=O)N(C)C2C1NN=c1s/c(=C\c3ccc(F)cc3)c(=O)n12 (configuration not stated),>81.5 µM,3470 nM,> 97.6 µM,,Cell growth relative to control (HL-60(TB)): 28%
CN1C(=O)N(C)C2C1NN=c1s/c(=C\c3ccc(C(F)(F)F)cc3)c(=O)n12 (configuration not stated),>72.2 µM,4210 nM,> 97.7 µM,26%,
CCN1C(=O)N(CC)C2C1NN=c1s/c(=C\c3ccc(Br)cc3)c(=O)n12 (configuration not stated),>80.5 µM,2570 nM,> 100 µM,,GI50 (Panc02): 400 nM; Cell growth relative to control (HL-60(TB)): 19%; GI50 (COLO357): 80 nM; GI50 (K562): 80 nM
CCN1C(=O)N(CC)C2Nn3c(s/c(=C\c4ccc(Cl)cc4Cl)c3=O)=NC21 (configuration not stated),,,,40%,
CN1C(=O)N(C)C2Nn3c(s/c(=C\c4ccc(Cl)cc4Cl)c3=O)=NC21 (configuration not stated),,,,56%,

Compound,GI [1],GI50 [2],LC50 [2],Activity (MDA-MB-435),other results
CCN1C(=O)N(CC)C2Nn3c(s/c(=C\c4cccc(F)c4)c3=O)=NC21 (configuration not stated),,,,65%,
CCN1C(=O)N(CC)C2Nn3c(s/c(=C\c4ccc(OC)cc4)c3=O)=NC21 (configuration not stated),,,,48%,
CCN1C(=O)N(CC)C2Nn3c(s/c(=C\c4cccc([N+](=O)[O-])c4)c3=O)=NC21 (configuration not stated),,,,42%,
CCN1C(=O)N(CC)C2C1NN=c1s/c(=C\c3cccc(F)c3)c(=O)n12 (configuration not stated),>81.2 µM,2450 nM,> 99.1 µM,23%,GI50 (Panc02): 80 nM; GI50 (COLO357): 80 nM; GI50 (K562): 80 nM
CN1C(=O)N(C)C2Nn3c(s/c(=C\c4ccc(Br)cc4)c3=O)=NC21 (configuration not stated),,,,,Activity (UO-31): 98%
CCN1C(=O)N(CC)C2C1NN=c1s/c(=C\c3ccc([N+](=O)[O-])cc3)c(=O)n12 (configuration not stated),>63 µM,1040 nM,> 98.6 µM,,GI50 (Panc02): 400 nM; Cell growth relative to control (HL-60(TB)): 26%; GI50 (COLO357): 400 nM; GI50 (K562): 400 nM
CCN1C(=O)N(CC)C2Nn3c(s/c(=C\c4ccccc4F)c3=O)=NC21 (configuration not stated),,,,41%,
CCN1C(=O)N(CC)C2Nn3c(s/c(=C\c4ccc(Br)cc4)c3=O)=NC21 (configuration not stated),,,,,Activity (SNB-75): 95%
CN1C(=O)N(C)C2C1NN=c1s/c(=C\c3ccccc3F)c(=O)n12 (configuration not stated),>75.9 µM,610 nM,> 97.6 µM,,GI50 (Panc02): 16 nM; Cell growth relative to control (HL-60(TB)): 21%; GI50 (COLO357): 80 nM; GI50 (K562): 400 nM
CCN1C(=O)N(CC)C2C1NN=c1s/c(=C\c3ccccc3Br)c(=O)n12 (configuration not stated),>38.3 µM,920 nM,> 87.5 µM,,Cell growth relative to control (HL-60(TB)): 21%
CCN1C(=O)N(CC)C2Nn3c(s/c(=C\c4ccccc4)c3=O)=NC21 (configuration not stated),,,,67%,
CCN1C(=O)N(CC)C2Nn3c(s/c(=C\c4ccc([N+](=O)[O-])cc4)c3=O)=NC21 (configuration not stated),,,,,Activity (MDA-MB-468): 67%
CN1C(=O)N(C)C2C1NN=c1s/c(=C\c3ccccc3)c(=O)n12 (configuration not stated),,,,41%,
COc1cccc2c1C(=O)c1c(O)c3c(c(O)c1C2=O)C[C@@](O)(C(C)=O)C[C@@H]3O[C@H]1C[C@H](N)[C@H](O)[C@H](C)O1 [DAUNORUBICIN],,,,,Activity (SK-MEL-5): -28%
COc1cccc2c1C(=O)c1c(O)c3c(c(O)c1C2=O)C[C@@](O)(C(=O)CO)C[C@@H]3O[C@H]1C[C@H](N)[C@H](O)[C@H](C)O1 [DOXORUBICIN],,,,,Activity (SK-MEL-5): -20%
CN1C(=O)N(C)C2C1NN=c1s/c(=C\c3ccc([N+](=O)[O-])cc3)c(=O)n12 (configuration not stated),,,,58%,
CCN1C(=O)N(CC)C2Nn3c(s/c(=C\c4ccc(C(F)(F)F)cc4)c3=O)=NC21 (configuration not stated),,,,,Activity (UO-31): 100%
COc1ccc(/C=c2\sc3n(c2=O)NC2C(N=3)N(C)C(=O)N2C)cc1 (configuration not stated),,,,,Activity (UO-31): 98%
CN1C(=O)N(C)C2Nn3c(s/c(=C\c4ccc(C(F)(F)F)cc4)c3=O)=NC21 (configuration not stated),,,,,Activity (SNB-75): 102%
CN1C(=O)N(C)C2Nn3c(s/c(=C\c4ccccc4F)c3=O)=NC21 (configuration not stated),,,,69%,
CN1C(=O)N(C)C2Nn3c(s/c(=C\c4ccc(F)cc4)c3=O)=NC21 (configuration not stated),,,,,Activity (SK-OV-3): 103%
